Experimental data as given in the OligoGym collection.
Oligonucleotides are written 5' to 3', each unit as a sugar letter and its base; * is a phosphorothioate linkage, no mark a phosphodiester; rarer units and linkages stand in square brackets, end groups in braces. Plain capitals give the bases only. d = 2'-deoxy (DNA); r = 2'-OH (RNA)

biological target: not listed separately; assay: reporter assay of Huesken 2005; details: siRNA
Note: test concentration or dose not given here.

In order of rising normalised inhibition (eCFP-eYFP dual reporter):
1. sense rUrGrArGrArCrUrUrCrCrArUrCrUrCrUrArGrCdTdT / antisense rGrCrUrArGrArGrArUrGrGrArArGrUrCrUrCrAdGdA  32.9%
2. sense rUrCrCrCrCrArUrArGrGrCrUrUrUrGrGrArGrCdTdT / antisense rGrCrUrCrCrArArArGrCrCrUrArUrGrGrGrGrAdTdA  35.8%
3. sense rCrCrArGrGrGrGrArCrArGrGrCrArGrCrArGrGdTdT / antisense rCrCrUrGrCrUrGrCrCrUrGrUrCrCrCrCrUrGrGdGdC  45.6%
4. sense rCrUrCrUrCrUrGrCrCrArCrArUrGrGrUrGrUrGdTdT / antisense rCrArCrArCrCrArUrGrUrGrGrCrArGrArGrArGdAdC  46.7%
5. sense rArCrUrCrCrUrUrCrCrUrUrCrUrCrUrGrArArGdTdT / antisense rCrUrUrCrArGrArGrArArGrGrArArGrGrArGrUdCdC  50.7%
6. sense rUrArCrUrCrUrUrGrCrUrCrUrCrUrGrGrArGrUdTdT / antisense rArCrUrCrCrArGrArGrArGrCrArArGrArGrUrAdGdA  57.9%
7. sense rUrUrGrCrUrCrUrCrUrGrGrArGrUrCrUrCrCrCdTdT / antisense rGrGrGrArGrArCrUrCrCrArGrArGrArGrCrArAdGdA  58.4%
8. sense rCrUrUrGrArGrGrGrArGrArGrUrUrGrUrArCrCdTdT / antisense rGrGrUrArCrArArCrUrCrUrCrCrCrUrCrArArGdCdC  63.4%
9. sense rUrCrCrCrUrGrCrUrUrCrUrGrArGrArCrUrUrCdTdT / antisense rGrArArGrUrCrUrCrArGrArArGrCrArGrGrGrAdAdG  67.9%
10. sense rCrCrUrGrUrCrArGrGrGrGrUrCrGrGrArGrUrGdTdT / antisense rCrArCrUrCrCrGrArCrCrCrCrUrGrArCrArGrGdCdA  72.5%
11. sense rUrGrGrCrUrCrUrGrUrCrUrCrUrCrUrGrCrCrAdTdT / antisense rUrGrGrCrArGrArGrArGrArCrArGrArGrCrCrAdCdC  76.5%
12. sense rArArGrArArArCrUrUrGrCrUrCrCrArGrArUrUdTdT / antisense rArArUrCrUrGrGrArGrCrArArGrUrUrUrCrUrUdCdT  79%
13. sense rCrArArUrCrCrGrCrCrCrCrArCrCrCrUrUrUrAdTdT / antisense rUrArArArGrGrGrUrGrGrGrGrCrGrGrArUrUrGdGdG  80.2%
14. sense rGrCrCrUrUrCrArUrCrCrArCrCrUrUrCrCrCrUdTdT / antisense rArGrGrGrArArGrGrUrGrGrArUrGrArArGrGrCdAdG  85.7%
15. sense rGrArGrUrCrArArArGrGrUrCrArCrCrArGrArGdTdT / antisense rCrUrCrUrGrGrUrGrArCrCrUrUrUrGrArCrUrCdCdC  85.9%
16. sense rGrGrCrArGrArCrUrArCrArGrUrUrUrCrUrUrUdTdT / antisense rArArArGrArArArCrUrGrUrArGrUrCrUrGrCrCdAdG  86%
17. sense rCrUrUrArGrUrCrCrCrCrUrCrUrUrUrCrUrGrGdTdT / antisense rCrCrArGrArArArGrArGrGrGrGrArCrUrArArGdGdG  87.5%
18. sense rArGrArArGrArArArCrUrUrGrCrUrCrCrArGrAdTdT / antisense rUrCrUrGrGrArGrCrArArGrUrUrUrCrUrUrCrUdCdA  90%
19. sense rCrArCrCrArGrArGrCrCrUrGrCrCrCrCrArCrCdTdT / antisense rGrGrUrGrGrGrGrCrArGrGrCrUrCrUrGrGrUrGdTdG  90.4%
20. sense rArArArCrGrCrCrUrArCrGrGrGrArGrUrCrArAdTdT / antisense rUrUrGrArCrUrCrCrCrGrUrArGrGrCrGrUrUrUdGdC  93.6%
21. sense rArGrGrUrCrArCrCrArGrArGrUrGrGrArArArCdTdT / antisense rGrUrUrUrCrCrArCrUrCrUrGrGrUrGrArCrCrUdTdT  94.3%

biological target: UBE2V1; assay: reporter assay of Huesken 2005; details: siRNA

In order of falling normalised inhibition (eCFP-eYFP dual reporter):
1. sense rCrArArUrUrUrCrCrGrArCrUrGrUrUrGrGrArAdTdT / antisense rUrUrCrCrArArCrArGrUrCrGrGrArArArUrUrGdCdG  95.3%
2. sense rUrGrGrCrArGrArArUrUrCrArUrArUrArGrCrAdTdT / antisense rUrGrCrUrArUrArUrGrArArUrUrCrUrGrCrCrAdTdT  89.7%
3. sense rGrGrArGrUrArArArArGrUrCrCrCrUrCrGrCrAdTdT / antisense rUrGrCrGrArGrGrGrArCrUrUrUrUrArCrUrCrCdTdT  88.7%
4. sense rArArGrArGrCrCrArUrArUrCrArGrUrGrCrUrAdTdT / antisense rUrArGrCrArCrUrGrArUrArUrGrGrCrUrCrUrUdGdG  84.4%
5. sense rCrArArGrArGrCrUrUrCrGrGrCrGrCrCrUrArAdTdT / antisense rUrUrArGrGrCrGrCrCrGrArArGrCrUrCrUrUrGdCdA  84.1%
6. sense rArArUrArUrArCrArGrCrCrUrUrArArArArUrAdTdT / antisense rUrArUrUrUrUrArArGrGrCrUrGrUrArUrArUrUdCdG  82.9%
7. sense rUrArGrCrUrGrGrGrGrUrCrUrArGrArArGrArUdTdT / antisense rArUrCrUrUrCrUrArGrArCrCrCrCrArGrCrUrAdAdC  82.8%
8. sense rUrCrGrGrCrGrCrCrUrArArUrGrArUrGrUrCrUdTdT / antisense rArGrArCrArUrCrArUrUrArGrGrCrGrCrCrGrAdAdG  78.8%
9. sense rArGrGrArArGrArCrUrUrGrArArCrCrUrArGrAdTdT / antisense rUrCrUrArGrGrUrUrCrArArGrUrCrUrUrCrCrUdTdC  78%
10. sense rCrArUrArUrArGrCrArUrCrArArArGrUrUrGrUdTdT / antisense rArCrArArCrUrUrUrGrArUrGrCrUrArUrArUrGdAdA  77.7%
11. sense rGrUrCrUrArArArGrArArArArUrArUrGrArArAdTdT / antisense rUrUrUrCrArUrArUrUrUrUrCrUrUrUrArGrArCdAdT  75.3%
12. sense rArGrCrUrGrGrGrGrUrCrUrArGrArArGrArUrGdTdT / antisense rCrArUrCrUrUrCrUrArGrArCrCrCrCrArGrCrUdAdA  73%
13. sense rUrGrCrUrArGrCrArArArArUrGrGrCrArGrArAdTdT / antisense rUrUrCrUrGrCrCrArUrUrUrUrGrCrUrArGrCrAdCdT  71.4%
14. sense rArArArGrGrArGrUrArArArArGrUrCrCrCrUrCdTdT / antisense rGrArGrGrGrArCrUrUrUrUrArCrUrCrCrUrUrUdGdC  65.6%
15. sense rCrCrUrCrArGrCrCrGrCrCrCrGrArArGrGrArCdTdT / antisense rGrUrCrCrUrUrCrGrGrGrCrGrGrCrUrGrArGrGdGdA  55.2%
16. sense rCrUrUrGrArArCrCrUrArGrArArArArUrUrUrCdTdT / antisense rGrArArArUrUrUrUrCrUrArGrGrUrUrCrArArGdTdC  53.5%
